Assay results taken from ChEMBL document CHEMBL1201862, “PubChem BioAssay data set” (2004).
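Cultured in 96-well plates, cells were exposed to test compound for 48 hours across five concentrations. The concentration for 50% growth inhibition is given as GI50.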 Activity calls are given as the source filed them. Cut-off read from the data, not from the text of the source: active = GI50 up to about 1.1 µM and inactive = higher.

Experiments:
Experiment in all cases: NCI-60 cell line screen, 48 h
SNB-75 = test system: SNB-75
MCF7 = test system: MCF7
HCT-15 = test system: HCT-15
OVCAR-5 = test system: OVCAR-5
HCT-116 = test system: HCT-116
NCI/ADR-RES = test system: NCI/ADR-RES
M14 = test system: M14
HL-60 = test system: HL-60
K562 = test system: K562
RPMI-8226 = test system: RPMI-8226
SK-MEL-2 = test system: SK-MEL-2
UACC-257 = test system: UACC-257
CCRF-CEM = test system: CCRF-CEM
MDA-MB-231 = test system: MDA-MB-231
A549 = test system: A549
Malme-3M = test system: Malme-3M
MDA-MB-435 = test system: MDA-MB-435
U-251 = test system: U-251
PC-3 = test system: PC-3
LOX IMVI = test system: LOX IMVI
SN12C = test system: SN12C
KM12 = test system: KM12
HCC 2998 = test system: HCC 2998
OVCAR-3 = test system: OVCAR-3
SNB-19 = test system: SNB-19
HT-29 = test system: HT-29
ACHN = test system: ACHN
SF-539 = test system: SF-539
NCI-H522 = test system: NCI-H522
BT-549 = test system: BT-549
COLO 205 = test system: COLO 205
NCI-H460 = test system: NCI-H460
RXF 393 = test system: RXF 393
A498 = test system: A498
SK-MEL-28 = test system: SK-MEL-28
SF-295 = test system: SF-295
Hs-578T = test system: Hs-578T
DU-145 = test system: DU-145
UACC-62 = test system: UACC-62
NCI-H226 = test system: NCI-H226
SF-268 = test system: SF-268
786-0 = test system: 786-0
OVCAR-4 = test system: OVCAR-4
IGROV-1 = test system: IGROV-1
SR = test system: SR
MDA-N = test system: MDA-N
HOP-92 = test system: HOP-92
SK-MEL-5 = test system: SK-MEL-5
SW-620 = test system: SW-620
TK-10 = test system: TK-10
OVCAR-8 = test system: OVCAR-8
CAKI-1 = test system: CAKI-1
MOLT-4 = test system: MOLT-4
EKVX = test system: EKVX
SK-OV-3 = test system: SK-OV-3
HOP-62 = test system: HOP-62
NCI-H23 = test system: NCI-H23
T47D = test system: T47D

COc1cc(OC)c2c(=O)c3cccc(C)c3n(C)c2c1
GI50 (SNB-75): 61.5 µM (inactive) | GI50 (MCF7): 34 µM (inactive) | GI50 (HCT-15): > 100 µM | GI50 (OVCAR-5): > 100 µM (inactive) | GI50 (HCT-116): 48.3 µM (inactive) | GI50 (NCI/ADR-RES): 64.1 µM (inactive) | GI50 (M14): 44 µM (inactive) | GI50 (HL-60): 30.5 µM (inactive) | GI50 (K562): 25.8 µM (inactive) | GI50 (RPMI-8226): 17.9 µM (inactive) | GI50 (SK-MEL-2): 76.7 µM (inactive) | GI50 (UACC-257): 43.5 µM (inactive) | GI50 (CCRF-CEM): 36.3 µM (inactive) | GI50 (MDA-MB-231): > 100 µM (inactive) | GI50 (A549): 83.2 µM (inactive) | GI50 (Malme-3M): 98.2 µM (inactive) | GI50 (MDA-MB-435): 50.7 µM (inactive) | GI50 (U-251): 84.3 µM (inactive) | GI50 (PC-3): 50.9 µM (inactive) | GI50 (LOX IMVI): 55.7 µM (inactive) | GI50 (SN12C): > 100 µM (inactive) | GI50 (KM12): 80 µM (inactive) | GI50 (HCC 2998): > 100 µM (inactive) | GI50 (OVCAR-3): 74.8 µM (inactive) | GI50 (SNB-19): > 100 µM (inactive) | GI50 (HT-29): 27.9 µM (inactive) | GI50 (ACHN): 51.3 µM (inactive) | GI50 (SF-539): 68.5 µM (inactive) | GI50 (NCI-H522): > 100 µM (inactive) | GI50 (BT-549): > 100 µM (inactive) | GI50 (COLO 205): 67 µM (inactive) | GI50 (NCI-H460): 94 µM (inactive) | GI50 (RXF 393): > 100 µM (inactive) | GI50 (A498): > 100 µM (inactive) | GI50 (SK-MEL-28): 50.1 µM (inactive) | GI50 (SF-295): 57.7 µM (inactive) | GI50 (Hs-578T): 58.7 µM (inactive) | GI50 (DU-145): 57.3 µM (inactive) | GI50 (UACC-62): 61.4 µM (inactive) | GI50 (NCI-H226): > 100 µM (inactive) | GI50 (SF-268): 72.6 µM (inactive) | GI50 (786-0): > 100 µM (inactive) | GI50 (OVCAR-4): 64 µM (inactive) | GI50 (IGROV-1): > 100 µM (inactive) | GI50 (SR): 37 µM (inactive) | GI50 (MDA-N): 16.6 µM (inactive) | GI50 (HOP-92): 83.6 µM (inactive) | GI50 (SK-MEL-5): 22.4 µM (inactive) | GI50 (SW-620): > 100 µM (inactive) | GI50 (TK-10): > 100 µM (inactive) | GI50 (OVCAR-8): 64.7 µM (inactive) | GI50 (CAKI-1): > 100 µM (inactive) | GI50 (MOLT-4): 52.4 µM (inactive) | GI50 (EKVX): > 100 µM (inactive) | GI50 (SK-OV-3): > 100 µM (inactive) | GI50 (HOP-62): > 100 µM (inactive) | GI50 (NCI-H23): > 100 µM (inactive)

CC(C)(C)OC(=O)N1C(=O)C2CCCC21 (stereo not given)
GI50 (SNB-75): > 100 µM (inactive) | GI50 (HCT-15): > 100 µM | GI50 (OVCAR-5): > 100 µM (inactive) | GI50 (HCT-116): > 100 µM (inactive) | GI50 (NCI/ADR-RES): > 100 µM (inactive) | GI50 (M14): > 100 µM (inactive) | GI50 (HL-60): > 100 µM (inactive) | GI50 (RPMI-8226): > 100 µM (inactive) | GI50 (SK-MEL-2): > 100 µM (inactive) | GI50 (UACC-257): > 100 µM (inactive) | GI50 (CCRF-CEM): > 100 µM (inactive) | GI50 (MDA-MB-231): > 100 µM (inactive) | GI50 (A549): > 100 µM (inactive) | GI50 (MDA-MB-435): > 100 µM (inactive) | GI50 (U-251): > 100 µM (inactive) | GI50 (PC-3): > 100 µM (inactive) | GI50 (LOX IMVI): > 100 µM (inactive) | GI50 (SN12C): > 100 µM (inactive) | GI50 (KM12): > 100 µM (inactive) | GI50 (HCC 2998): > 100 µM (inactive) | GI50 (OVCAR-3): > 100 µM (inactive) | GI50 (SNB-19): > 100 µM (inactive) | GI50 (HT-29): > 100 µM (inactive) | GI50 (ACHN): > 100 µM (inactive) | GI50 (BT-549): > 100 µM (inactive) | GI50 (T47D): > 100 µM (inactive) | GI50 (COLO 205): > 100 µM (inactive) | GI50 (NCI-H460): > 100 µM (inactive) | GI50 (RXF 393): > 100 µM (inactive) | GI50 (A498): > 100 µM (inactive) | GI50 (SK-MEL-28): > 100 µM (inactive) | GI50 (Hs-578T): > 100 µM (inactive) | GI50 (DU-145): > 100 µM (inactive) | GI50 (UACC-62): > 100 µM (inactive) | GI50 (NCI-H226): > 100 µM (inactive) | GI50 (SF-268): > 100 µM (inactive) | GI50 (786-0): > 100 µM (inactive) | GI50 (OVCAR-4): > 100 µM (inactive) | GI50 (IGROV-1): > 100 µM (inactive) | GI50 (SR): > 100 µM (inactive) | GI50 (HOP-92): > 100 µM (inactive) | GI50 (SK-MEL-5): > 100 µM (inactive) | GI50 (SW-620): > 100 µM (inactive) | GI50 (OVCAR-8): > 100 µM (inactive) | GI50 (MOLT-4): > 100 µM (inactive) | GI50 (SK-OV-3): > 100 µM (inactive) | GI50 (HOP-62): > 100 µM (inactive) | GI50 (NCI-H23): > 100 µM (inactive)
